In patent publication US20220280607A1, “Treatment of Heart Defects and Conditions in Pediatric Patients” (University of Pittsburgh - Of the Commonwealth System of …, priority 2019, published 2022):

Key:
[1] = test system: cardiomyocytes of newborn mice; experiment: Mouse pharmacological treatment of newborn mice: binucleated cardiomyocytes, cardiomyocyte endowment, cell cycle activity, heart weight; type: in vivo; settings: for increase of cardiomyocyte endowment: counting fixation-digested hearts, FIG. 12D
Procedure: […] An equal volume of phosphate buffered saline (PBS) was injected in the control groups.
Isolation of intact cardiomyocytes for quantification: We used a previously validated fixation digestion method to isolate intact cardiomyocytes from fresh or frozen myocardium for quantification (Mollova, M., et al. “Cardiomyocyte proliferation in human heart growth” Proceedings of the National Academy of Sciences January 2013, 110 (4) 1446-1451; DOI: 10.1073/pnas.1214608110). The myocardium was cut into 1 cubic millimeter (mm^3) sized tissue blocks followed by incubation with 3.7% formaldehyde at room temperature for 1.8 hours. After being washed with PBS 3 times to remove the formaldehyde, the fixed tissue blocks were digested in enzyme solution (Collagenase B, 3.6 mg/ml; Collagenase D, 4.8 mg/ml) at 37 degrees Celsius (° C.), with 10 revolutions per minute (rpm) overhead rotation. The digested cells were collected every 24 hours from the supernatant, and the undigested tissue was re-suspended with fresh enzyme solution until all of the tissue pieces were digested. All of the digested cells from the same heart were then combined and allowed to settle to the bottom of the tube. The cell pellet was collected for further study.
Counting of cardiomyocytes after fixation and digestion: All fractions from the digestion of a heart were combined in 2 milliliters (mL) PBS and cardiomyocytes were quantified using a hemocytometer.
Intact cardiomyocytes in suspension. To assess M-phase, intact cardiomyocytes were isolated by fixation-digestion. The solution containing the stained cells was then transferred to 8-well chambered cover glass (400 μl/well). After the cells were settled down to the bottom of the chambers, the number of mono/bi/multinucleated cardiomyocytes were counted with a fluorescence microscope, and the percentage of mono/bi/multinucleated cardiomyocytes was calculated. To quantify the proportion of H3P-positive cardiomyocytes, the concentration of stained cardiomyocytes in suspension (Ccardiomyocytes) was first measured using a hemocytometer. The cell suspension (400 μl) was then transferred to a well of a chamber slide, and the total number of H3P-positive cardiomyocytes (HH3P+) inside the well was counted with a TiE epifluorescence microscope. The proportion of the H3P-positive cardiomyocytes (PH3P+) was calculated using the following formula: […]
Heart sections: To determine S-phase, BrdU (40 μg/g body) was administered to P7 ICR mice and the hearts were resected at P8, fixed, and cryosectioned at 15 μm thickness. From each heart, four heart sections at a distance of 300 μm were selected and imaged by tile scanning with a Nikon A1R confocal microscope. The total number of BrdU-positive cardiomyocytes at the selected heart sections was counted. The total area of the selected heart sections was measured by Fiji software. The density of BrdU-positive cardiomyocytes (cells/mm^2) in the hearts was calculated using the following equation: […]
Intact cardiomyocytes in suspension. Cardiomyocytes were isolated from fresh or frozen (human or mouse) ventricle myocardium using the fixation-digestion method, followed by immunostaining as described above. The cells were then imaged and quantified with a Nikon A1R microscope for mono/bi/multi-nucleation.

[2] = test system: cardiomyocytes from infants with ToF/PS; experiment: ToF/PS myocardium tissue (organotypic) culture: binucleated BrdU-labeled cardiomyocytes; type: cell-based, human; settings: propranolol 10 μM + dobutamine 10 μM, ToF/PS organotypic cultures, FIG. 14E
Procedure: ToF/PS myocardium tissue culture: Discarded myocardium samples were collected during ToF/PS surgery, cut into ˜1 mm^3 tissue blocks, and cultured in IMDM media containing 10% FBS, recombinant neuregulin 1 (rNRG1, 100 ng/ml), and BrdU (30 μM) for 6 days. Samples were treated with forskolin (10 μM), propranolol (10 μM), dobutamine (10 μM), or a combination of propranolol (10 μM) and dobutamine (10 μM).
Cultured ToF/PS myocardium. Cardiomyocytes were isolated from cultured myocardium with the fixation-digestion method. After denaturing the DNA with 2N HCl and neutralization with 2 Normal (N) sodium hydroxide (NaOH), immunofluorescence antibody labeling was performed in solution. The proportion of binucleated and BrdU-positive was quantified with a Nikon A1R microscope.

## CC(C)NCC(O)COc1cccc2ccccc12 (stereo not drawn) [propranolol, 1-naphthalen-1-yloxy-3-(propan-2-ylamino)propan-2-ol]
[1]; at P8
  fewer cardiomyocytes undergoing cytokinesis failure than PBS-treated pups: 13.6%
[1]; at P8, back-of-the-envelope calculation from endowment of PBS-treated pups at P4
  additional cardiomyocytes predicted to be generated by enabling completion of cytokinesis: 0.22×10^6 cardiomyocytes
[1]; calculated from the counts
  propranolol-induced increase of endowment between P4 and P8 (treated minus PBS): 0.18×10^6 cardiomyocytes
[1]; newborn mice, 2 i.p. injections per day, FIG. 16A, 16B
  heart weight: not changed
[1]; newborn mice, at P4, 10 μg/g, 2 i.p. injections per day
  increase of cardiomyocyte endowment: 22%
[1]; newborn mice, at P8, 2 i.p. injections per day, 12H
  increase of cardiomyocyte endowment: 30%
[1]; newborn mice, at P8, FIG. 12E
  cardiomyocyte cell cycle entry (quantified by BrdU uptake): without a change
[1]; newborn mice, at P8, FIG. 12F
  progression to M-phase (quantified by H3P-staining): without a change
[1]; newborn mice, treatment from P1 to P4, 10 μg/g, 2 i.p. injections per day, FIG. 12C
  decrease of the proportion of binucleated cardiomyocytes: 21%
[1]; newborn mice, treatment from P1 to P8, 2 i.p. injections per day (propranolol 10 μg/g; alprenolol 10 μg/g, 40 μg/g), FIG. 12C, 12G
  decrease of the proportion/formation of binucleated cardiomyocytes: 17%
[1]; propranolol-treated pups, from counts
  increase of cardiomyocyte endowment between P4 and P8 in treated pups: 0.35×10^6 cardiomyocytes
[2]
  inhibition of the dobutamine-stimulated increase in binucleated cardiomyocytes: completely
